Laboratory results from patent US10183007B2, “Method of producing proanthocyanidin oligomer” (Nagasaki University, priority 2005, dated 2019).

What was measured:
[1] = TEAC (Trolox Equivalent Antioxidant Capacity) method; format: biochemical
Protocol: TEAC (Trolox Equivalent Antioxidant Capacity) method is a method of relatively evaluating antioxidative strength by converting antioxidative activity of a compound into antioxidative activity of Trolox which is a α-tocopherol derivative and the method is widely employed as an index of antioxidative activity.
To 36 μL of 70 μM metmyoglobin solution, 300 μL of ABTS solution and […] of 5 mM phosphate buffered saline were added. Subsequently, sample solution or 1.25 mM Yrolox solution was added thereto and gently mixed together for 5 minutes at 0° C. After 167 μL of 450 μM hydrogen peroxide solution was added thereto and mixed for 10 seconds, reaction was allowed to proceed for 5 minutes at room temperature. Absorbance at 734 nm was measured and the absorbance ratio between the sample and the Trolox solution was calculated to serve as TEAC value of the sample against […] Trolox.
As substance to be compared with Invention Substances C to E, grape seed polyphenol polymer was used.

[2] = DPPH radical-scavenging activity assay; format: biochemical; conditions: test concentration not given
Protocol: With respect to each sample, 1,1-diphenyl-2-picrylhydrazyl (DPPH) radical-scavenging activity was evaluated as follows. In a 96-hole microplate, 100 μL of DPPH solution (60 μM ethanol solution) was placed. Added thereto was 100 μL of ethanol solution of test sample or 100 μL of ethanol as control, and the mixture was gently mixed together and left standing at room temperature for 30 minutes. Then, absorbance at 520 nm was measured. The DPPH radical-scavenging activity was calculated by the following formula and 50% effective concentration (EC50) was calculated from The DPPH radical-scavenging activity value of test sample gradually diluted and its concentration. DPPH radical-scavenging activity(%)=[…] [Formula 1]
As substance to be compared with Invention Substance B, epicatechin and phloroglucinol (PL) were used. As substance to be compared with Invention Substances C to E, grape seed polyphenol polymer (GP) was used.

[3] = FIG. 11, TEAC value against Trolox
[4] = FIG. 8, comparison for Invention Substance B

With Oc1ccc(/C=C/c2cc(O)c([C@H]3c4c(O)cc(O)cc4O[C@H](c4ccc(O)c(O)c4)[C@@H]3O)c(O)c2)cc1 [Invention Substance A, 4b-(4-resveratroyl)-(−)-epicatechin] the TEAC activity ([1]; FIG. 10, TEAC value against 1.00 mM Trolox) was 1.33 mM and the DPPH activity ([2]; FIG. 7, comparison for Invention Substance A) was 76.1%.

In the case of Oc1cc(O)c([C@H]2c3c(O)cc(O)cc3O[C@H](c3ccc(O)c(O)c3)[C@@H]2O)c(O)c1 [Invention Substance B, 4-(2-phloroglucinol)-(−)-epicatechin], the TEAC activity [1, 3] was 1.44 mM and the DPPH activity [2, 4] was “significantly high scavenging activity as compared with both of the substances”.

In the case of Oc1cc(O)cc(O)c1 [phloroglucinol, reference compound], the TEAC activity [1, 3] was 0.52 mM and the DPPH activity [2, 4] was “little such activity”.
